# Assay results as given in article PMC7663597, “Structure–Activity Relationship of Aloperine Derivatives as New Anti–Liver Fibrogenic Agents” (Molecules, 2020).
# What was measured:
# [1] = target: T1, luciferase (Photinus pyralis, UniProt P08659, K549A/L550V/N119G/N50D/S548I); assay: Acute effect on luciferase activity (cell lysate, 2 h); format: biochemical; conditions: 80 μM, 2-h treatment
# T1 construct: expressed in transfected cells; host or cells: human hepatic stellate LX-2 cells transfected with pGL4.17-COL1A1P; lysate used
# T1 sequence (P08659 whole entry N50D/N119G/S548I/K549A/L550V): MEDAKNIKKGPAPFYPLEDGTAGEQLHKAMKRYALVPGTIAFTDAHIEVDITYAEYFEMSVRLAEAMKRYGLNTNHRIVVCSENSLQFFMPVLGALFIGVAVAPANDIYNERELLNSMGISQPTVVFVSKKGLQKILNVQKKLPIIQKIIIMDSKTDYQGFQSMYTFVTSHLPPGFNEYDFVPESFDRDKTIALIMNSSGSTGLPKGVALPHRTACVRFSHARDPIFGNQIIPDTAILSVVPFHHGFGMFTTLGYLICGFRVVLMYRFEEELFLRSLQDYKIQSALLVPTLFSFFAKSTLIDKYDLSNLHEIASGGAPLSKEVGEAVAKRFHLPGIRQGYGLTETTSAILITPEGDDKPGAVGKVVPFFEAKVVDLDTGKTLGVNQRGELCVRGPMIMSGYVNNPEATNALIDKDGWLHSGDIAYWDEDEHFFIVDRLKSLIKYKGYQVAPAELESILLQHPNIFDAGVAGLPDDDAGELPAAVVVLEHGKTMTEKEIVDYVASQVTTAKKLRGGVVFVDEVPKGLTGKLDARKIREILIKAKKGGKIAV
# Protocol: Then, their anti-COL1A1 potencies were verified by testing the half maximal inhibition concentration (IC50) values upon COL1A1 expression expression in LX-2 cells. […] Then, compounds 4i, 4n and 4p with the lower IC50 values were selected as the key compounds for further studies.
# Cells were maintained on Dulbecco’s Modified Eagle’s medium (DMEM), laid on 96-well plate. DMEM medium was supplemented with 10% fetal bovine serum (FBS) at 37 °C humidified atmosphere with 5% CO2. Furthermore, serum-free culture was required until the cells were confluent at 90−95%. 24 h later the cells were treated with a tested compound (40 and 80 μM) for 24 h. The COL1A1 promotor activity was detected by the Bright-Glo luciferase assay system. Alternatively, to test the acute effects of compound on luciferase activity, 24 h later the cells were lysed and the lysate was treated with a tested compound (80 μM) for 2 h, then the luciferase was detected by the Bright-Glo luciferase assay system (Promega, Madison, WI, USA).
# [2] = tested on: α-SMA protein; assay: Western blot of α-SMA protein in LX-2 cells; format: cell-based, human; conditions: with TGF-β1, 6 and 12 μM, 24 h
# Protocol: Stellate cell activation is a key process for liver fibrogenesis, and α-SMA expression, induced by a stimulation of TGF-β1 or other factors, is considered a reliable marker of hepatic stellate cell activation and a key biomarker for liver fibrosis. Therefore, the expression of α-SMA was also investigated. As presented in Figure 3A–C and Supplementary Table S2, in our experiments, the addition of TGF-β1 stimulated the expression of α-SMA on protein level as expected.
# LX-2 cells were cultured as described above. Cells were washed with phosphate-buffered saline (PBS) and were resuspended by radioimmunoprecipitation assay (RIPA) lysis buffer for 30 min in 4 °C; the supernatant was collected after centrifugation at 12000 g for 15 min at 4 °C. Subsequently, equal amounts of protein were quantified with Bradford assay, separated using SDS-PAGE and transferred onto polyvinylidene difluoride membrane. The membranes were blocked with 5% milk in PBST for 1 h, and probed with specific primary antibodies overnight at room temperature. The membrane was washed three times by PBST, and probed with horseradish peroxidase-conjugated secondary antibodies and GAPDH. The proteins were visualized by chemiluminescence reagents. […]
# [3] = in vivo; conditions: both sexes, Kunming, mouse, po
# Protocol: (§1) To evaluate the safety profiles of the key compounds 4i, 4n and 4p, an acute toxicity test was performed in Kunming mice. Compound 4i was given orally in a single-dosing experiment at 100, 300 and 400 mg kg^−1, while 4n at 300, 400, 500 mg kg^−1, and 4p at 200, 400, 500 mg kg^−1. The mice were closely monitored for 7 days.
# (§2) Male and Female Kunming mice with weight of 20.0 ±1.0 g were obtained from the Institute of Laboratory Animal Science (Beijing, China). Animals wer e cared according to the institutional guidelines of the Institute of Medicinal Biotechnology, CAMS&PUMC (IMB-20190610D3), and fed with regular rodent chow and housed in an air conditioned room. The mice were randomly divided into different groups with four male mice and four female mice each. Each compound was given orally in a single-dosing experiment, the dose of 4i was 100, 300 and 400 mg kg^−1, the dose of 4n was 300, 400, 500 mg kg^−1, the dose of 4p was 200, 400, 500 mg kg^−1 (ddH2O as control). The mice were closely monitored for 7 days. Body weight as well as survival was monitored.
# [4] = tested on: Kunming mice; assay: in vivo; conditions: both, mouse, po, 7 days
# Protocol: as §1, §2
Structure (SMILES),Acute effect on luciferase activity [1],Inhibition of α-SMA expression on protein level [2],LD50 at 7 days [3] [mg/kg],median lethal dose (LD50) [4] [mg/kg]
"O=C(CN1CCCC2=C[C@H]3C[C@H](CN4CCCC[C@H]34)[C@@H]21)N(c1ccccc1)c1ccc2ccccc2c1 [4n, 12N-(N’-(Naphthalen-2-yl)-N’-phenyl)carbamoylmethyl aloperine]",minimal inhibition,dose-dependent inhibition,500,500
"O=C(CN1CCCC2=C[C@H]3C[C@H](CN4CCCC[C@H]34)[C@@H]21)N1c2ccccc2Oc2ccccc21 [4p, 12N-N′-Phenoxazinylcarbamoylmethyl aloperine]",minimal inhibition,dose-dependent inhibition,400,400
